In US20180064125A1, “INHIBITION OF PATHOGENIC GROWTH ON PLANT MATERIALS USING LACTIC ACID PRODUCING MICROORGANISMS” (priority 2009, published 2018):

System: E. coli O157:H7
Assay: 12 day shelf-life study of inoculated spinach rinsed with LAB, chlorine or multi-hurdle intervention at 7° C.
Set-up: species or system Escherichia coli O157:H7
Details: 12 day shelf-life at 7° C., in words, P<0.0001

For `OCl` [chlorine, sodium hypochlorite], the “Reductions in pathogen populations compared to control populations” value was “Significant reductions”.
